# Tests used:
# MDCK cells = conditions: cited from earlier work
# Jurkat cells = conditions: cited from earlier work
# Wuhan95 virus = type: cell-based
Structure (SMILES),cytotoxicity in MDCK cells (MDCK cells),ATP relative to un-treated control cells (Jurkat cells) [%],GTP relative to un-treated control cells (Jurkat cells) [%],reversal of ribavirin inhibition of Wuhan95 replication by guanosine (Wuhan95 virus)
NC(=O)c1nc(F)c[nH]c1=O [favipiravir],No cytotoxicity,,,
Nc1nc2c(ncn2[C@@H]2O[C@H](CO)[C@@H](O)[C@H]2O)c(=O)[nH]1 [guanosine],,40,600,can restore Wuhan95 replication

# Reference: publication PMC4155405 (Nature communications, 2014)
